# Like-named read-outs stand apart in the source and are kept apart here.
# Tests used:
# [1] = system: PANC-1 cells; test: Viability assay (CellTiter Blue), PANC-1 cells, hypoxia vs normoxia; assay type: cell-based, human
# Protocol: (§1) PANC-1 and HaCat cells (PANC-1: RRID:CVCL 0480, taken from a person, HaCat: RRID:CVCL 0038) were cultured in DMEM (Gibco, Cat #: 21969-035) supplemented with FBS (10%, Gibco, Cat #: A31698-02), Penicillin/Streptomycin (1%, Sigma-Aldrich, Cat #: P0781), and Ala-Gln (200 μM, Sigma-Aldrich, Cat #: G8541). BxPC3 cells (RRID:CVCL 0186, taken from a person) were cultured in RPMI 1640 (Gibco, Cat #: 61870-010) supplemented with FBS (10%) and Penicillin/Streptomycin (1%). U2OS (RRID:CVCL 0042) and HCT116 cells (RRID:CVCL 0291, ATCC CCL-247) were cultured in McCoy's 5A (Sigma cat. no. M9309) supplemented with FBS (10%) and Penicillin/Streptomycin (1%). Cells were grown under normoxic conditions in T75 flasks (Biolite, Thermo Scientific, Cat #: 130190) in a humidified atmosphere with 5% CO2 at 37° C. For hypoxic conditions cells were placed in a modular incubator chamber (MIC-101, Billups-Rothenberg) equipped with a 10-cm dish with milliQ water and flushed with CO2/N2 (5%/95%, BioNERT, AGA Cat #: 100466065) for 8 minutes at 20-25 L/minute. Cells were passaged approximately every third day by trypsination (Sigma-Aldrich, Cat #: T4049) followed by transfer of ⅕^th of the cells to a new flask. All cell cultures were handled aseptically in a laminar air flow bench and grown in sterile-filtered (Jetbiofil, Cat #: FPE204500) medium according to ATCC's recommendations. All human cell lines were correctly identified by short tandem repeat analysis and tested free of mycoplasma contamination by MycoAlert (Lonza, Cat #: LT07-218).
# (§2) Cells were seeded in black 96-well plates (2000 cells/well, 75 μL/well, ThermoFisher Scientific, Cat #: 137103) in complete medium. Subsequently, the cells were allowed to adhere to the substratum overnight. The next day, compounds were serially diluted in DMSO as 200× solutions. The 200× solutions of compounds were initially diluted in complete medium to 4× solutions containing 2% DMSO. Finally, the compounds were given to cells by the addition of 25 μL/well in triplicates resulting in 1× solutions of compounds in 100 μL/well. The cells were then incubated under either normoxia or hypoxia. 90 minutes before the end of the experiment, all cells were given CellTiter Blue (20 μL/well, Promega, Cat #: G8080) and reincubated under normoxia for the remaining time of the experiment. The viability of the cells was assessed by measuring fluorescence in a plate reader (ex/em: 552±10/598±10, Tecan Spark 10M). Data were normalized to the two lowest concentrations of compound and fitted to a 4-parameter nonlinear regression in Prism 7.04 for Windows, GraphPad Software, La Jolla Calif. USA. IC50 values were extrapolated as the X value at Y=50%. Results can be found in Table 1 and the corresponding dose-response curves seen in FIGS. 12 to 17 and in FIGS. 9 to 10.
# [2] = system: BxPC3 cells; test: Viability assay (CellTiter Blue), BxPC3 cells, hypoxia vs normoxia; assay type: cell-based, human
# Protocol: as §1, §2
# [3] = system: HCT116 cells; test: Viability assay (CellTiter Blue), HCT116 cells, hypoxia vs normoxia; assay type: cell-based, human
# Protocol: as §1, §2
# [4] = system: tested cell lines; test: Viability assays, summary statements across the tested cell lines; assay type: cell-based, human
# Protocol: as §1, with “Cells were passaged approximately every third day by trypsination (Sigma-Aldrich, Cat #: T4049) followed by transfer of ⅕^th of the cells to a new flask. All cell cultures were handled aseptically in a laminar air flow bench and grown in sterile-filtered (Jetbiofil, Cat #: FPE204500) medium according to ATCC's recommendations. All human cell lines were correctly identified by short tandem repeat analysis and tested free of mycoplasma contamination by MycoAlert (Lonza, Cat #: LT07-218).” left out
# Cells were seeded in black 96-well plates (2000 cells/well, 75 μL/well, ThermoFisher Scientific, Cat #: 137103) in complete medium. […] The viability of the cells was assessed by measuring fluorescence in a plate reader (ex/em: 552±10/598±10, Tecan Spark 10M). […]
# [5] = Chemical stability measurements (UPLC-UV); conditions: 20 μM in sodium tetraborate buffer (pH 10) with 30% MeOH, 23° C., up to 9 hours
# Protocol: The stability of compounds under neutral or basic conditions were tested by dissolving compounds to 20 μM in PBS (pH 7.4) or sodium tetraborate buffer (pH 10) both mixed with 30% MeOH. The mixtures were shaken vigorously and injected immediately in the HPLC. The reactions were allowed to run at 23° C. for 9 hours and injections were performed once per hour. The concentrations of unreacted compounds were determined by UPLC-UV (Agilent 1260 infinity II) at 262 nm by injecting 5 μL on a PFP column (Poroshell 120 PFP, 3.0×100 mm, 2.7 micron). The compounds were eluted by a 1 mL/minute-gradient of acetonitrile in H2O from 5% to 95% over 8 minutes, then 95% for 1 minute and then 5% acetonitrile in H2O in 30 seconds.
"IC50 ([1]; PANC1, hypoxic conditions, read-out: IC50 (μM) [1])","IC50 ([1]; PANC1, normoxic conditions, read-out: IC50 (μM) [2])","IC50 ([2]; BxPC3, hypoxic conditions, read-out: IC50 (μM) [1])","IC50 ([2]; BxPC3, normoxic conditions, read-out: IC50 (μM) [2])","IC50 ([3]; HCT116, hypoxic conditions, read-out: IC50 (μM) [1])","IC50 ([3]; HCT116, normoxic conditions, read-out: IC50 (μM) [2])",chemical stability at elevated pH [5],Compound,"Index [3] Selectivity index (IC50 [2]/IC50 [1]) ([1]; PANC1, normoxic IC50 / hypoxic IC50)","Index [3] Selectivity index (IC50 [2]/IC50 [1]) ([2]; BxPC3, normoxic IC50 / hypoxic IC50)","Index [3] Selectivity index (IC50 [2]/IC50 [1]) ([3]; HCT116, normoxic IC50 / hypoxic IC50)",selectivity indices [4]
0.76 µM,6.2 µM,1.2 µM,4.7 µM,0.73 µM,3 µM,–,"C=C1/C=C/C(=O)N(C)CC(=O)N[C@@H](CCCCNC(=O)OC(C)(C)C)COc2cc(CCCCCCCCCCCC)ccc2C(=O)N1 [PH911, tert-butyl (S,E)-(4-(16-dodecyl-7-methyl-11-methylene-5,8,13-trioxo-2,3,4,5,6,7,8,11,12,13-decahydrobenzo[n][1]oxa[4,7,12]-triazacyclopentadecin-3-yl)butyl)carbamate]",8.1,3.9,4.2,four to eight-fold
–,–,–,–,–,–,decreased stability,C=C1/C=C/C(=O)N(C)CC(=O)N[C@@H]([C@H](O)C(N)=O)C(=O)OC([C@H](C)CCCCCC)[C@H](C)C(=O)N1 (some centres unmarked) [rakicidin D],–,–,–,–

# Reference: US12415789B2, “Macrocycles comprising a 4-amido-2,4-pentadienoate moiety for the treatment of hypoxic cancers” (Aarhus Universitet, priority 2019, dated 2025)
